This is an account of results in patent US20100292231A1, “Indazole Compounds for Treating Inflammatory Disorders, Demyelinating Disorders and Cancers” (priority 2007, published 2010).

Experiment [1] has as its target T1, BaF3-D835Y (Homo sapiens, UniProt P36888, D835Y, cells depend on it).
T1 sequence (P36888 1-993 D835Y): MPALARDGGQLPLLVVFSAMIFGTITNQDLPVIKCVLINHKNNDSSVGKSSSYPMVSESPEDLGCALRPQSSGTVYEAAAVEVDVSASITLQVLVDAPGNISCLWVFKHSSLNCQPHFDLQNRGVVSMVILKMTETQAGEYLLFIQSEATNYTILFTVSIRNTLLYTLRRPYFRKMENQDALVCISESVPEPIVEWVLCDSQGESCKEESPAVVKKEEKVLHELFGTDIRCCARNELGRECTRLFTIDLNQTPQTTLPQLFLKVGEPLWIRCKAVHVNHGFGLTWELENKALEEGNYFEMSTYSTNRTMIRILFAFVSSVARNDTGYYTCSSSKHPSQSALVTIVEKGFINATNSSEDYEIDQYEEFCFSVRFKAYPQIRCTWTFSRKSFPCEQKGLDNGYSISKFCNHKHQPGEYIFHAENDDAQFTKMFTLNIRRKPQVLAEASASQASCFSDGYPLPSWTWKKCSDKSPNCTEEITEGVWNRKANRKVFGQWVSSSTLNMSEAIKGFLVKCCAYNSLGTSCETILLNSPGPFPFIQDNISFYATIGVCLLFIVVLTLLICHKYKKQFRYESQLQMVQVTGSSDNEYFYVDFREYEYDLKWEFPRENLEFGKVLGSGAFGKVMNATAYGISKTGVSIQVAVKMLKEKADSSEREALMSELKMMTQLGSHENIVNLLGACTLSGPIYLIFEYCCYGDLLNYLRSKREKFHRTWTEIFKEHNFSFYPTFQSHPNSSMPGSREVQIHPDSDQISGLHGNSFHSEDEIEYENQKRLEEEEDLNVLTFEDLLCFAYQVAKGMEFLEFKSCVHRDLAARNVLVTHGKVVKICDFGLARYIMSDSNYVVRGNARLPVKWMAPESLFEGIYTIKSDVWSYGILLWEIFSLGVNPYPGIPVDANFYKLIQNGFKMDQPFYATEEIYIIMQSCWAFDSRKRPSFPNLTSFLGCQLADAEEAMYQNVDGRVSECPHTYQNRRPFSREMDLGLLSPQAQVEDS
Nature of the experiment: MTS cellular proliferation assay. The format is cell-based. The note with it: 72 hour incubation, read-out: Growth inhibitory activity (in vivo EC50 nM). From the text: (§1) The viability of Flt3 expressing cells can be evaluated using a tetrazolium salt reduction cell-based assay. […] BaF3, both wild type and mutant, as well as transfected strains, MV4-11 and MOLM14 are well-characterized Flt3-dependent humanized or human cell lines which express active Flt3 receptors (see, Yee et al. Blood (2002)100 (8):2941-2949; Levis et al. (2002) 99(11): 3885-3891). These cell lines were used to determine the ability of the compounds provided herein to inhibit Flt3 in intact cells. In each case, and by methods known to those practiced in the art of cell culture, proliferation was measured after 72 hour incubation with the compounds provided herein using a standard MTS protocol (Promega Cat #5430 “Cell Titer 96 Aqueous Non-radioactive Cell Proliferation Assay”).
(§2) In general, cells were plated at 10,000-20,000 cells per well in DMEM medium with 0.5% serum. The compound plate was set up by aliquoting into column 1 of a 96 well 300 ul polypropylene plate, the negative control (DMSO), aliquoting into column 12 the positive control and titrating the test compound in serial dilutions into columns 2-1 l. An aliquot from each well of the compound plate was transferred to the plated cells and then incubated @ […] in 5% CO2. [00538] MTS tetrazolium compound (Owen's reagent) was thawed in a H2O bath. 20 μl of MTS tetrazolium was added to each well of optical plate and the cells were incubated @ 37° C. in 5% CO2 for 2 hours. The absorbance measured at 490 nm using a microplate reader.
On the technique in general: Tetrazolium dyes change colour on reduction, which living cells bring about.

The subject of experiment [2] is MOLM14. Nature of the experiment: MTS cellular proliferation assay. The settings on record: Homo sapiens, MOLM-14, 72 hour incubation, read-out: Growth inhibitory activity (in vivo EC50 nM). The format is cell-based.
Description: as §1, §2

For experiment [3], the target named is T2, CSF-1R (Homo sapiens, UniProt P07333).
T2 construct: purchased Invitrogen (SelectScreen platform)
The experiment is described as follows: Kinase EC50 (10 pt curve or estimate, ATP Kmapp). The note with it: from 10 pt curve or estimate based on 1 μm inhibition assay at ATP Kmapp. The experiment is classed as biochemical.

Experiment [4] deals with MV4-11 (leukemia) cell line. Nature of the experiment: sulforhodamine B (SRB) cytotoxicity assay. The note with it: Homo sapiens. The format is cell-based. The method, then:
The cytotoxic activity of compounds listed in Table 5 was determined with a sulforhodamine B (SRB) assay on panel of cell lines, including MdaMb231 (breast cancer), MV4-11 (leukemia), PC-3 (prostate cancer), U266B1 (multiple myeloma), C7 macrophages, and Raw264.7 (murine macrophage-like cells).
Cells growing in relevant media were seeded in a 96 well plate and left to adhere overnight. Cells were plated at appropriate cell densities: • MV4-11: 20.000 cells/well • Mda-Mb231: 6000 cells/well • C7: 10.000 cells/well • Raw264.7: 2000 cells/well • PC-3: 6000 cells/well • U266B1: 40.000 cells/well.
After a 3 day incubation period (6 days for C7 and Raw264.7) cells were fixed with trichloroacetic acid (TCA) to end concentration of 10% for adherent cells and 16% end concentration for suspension cells for 1 hr at 4° C. before washing. Cells were stained with 0.4% sulforhodamine-B dye (SRB) in 1% acetic acid for 30 minutes and washed in 1% acetic acid. To solubilize the dye 100 μl 10 mM Tris, pH 10.5 was added and the absorbance was read at 564 nm. IC50 values were generated using the SoftMAX Pro™ software. The data is presented below in Tables 6 through 11.
A general note: In SRB staining, fixed cells bind dye roughly in proportion to their protein.

Where [5] appears, read: MV4-11, 72 h, 100 μM highest concentration, diluted 1:5, 3 day incubation, read-out: IC50 Measured Against MV4-11 Cell Line.
Setting [6] is: MV4-11, Table 5 summary, read-out: IC50 SRB assay MV4-11.
The mark [7] stands for this setting: MV4-11, 72 h, 50 μM highest concentration, diluted 1:4, 3 day incubation, read-out: IC50 Measured Against MV4-11 Cell Line.

Where two headings read alike, the source gives them in different places. Where only a bound is given, the exact number is not on record here.

T2 sequence (P07333 20-972): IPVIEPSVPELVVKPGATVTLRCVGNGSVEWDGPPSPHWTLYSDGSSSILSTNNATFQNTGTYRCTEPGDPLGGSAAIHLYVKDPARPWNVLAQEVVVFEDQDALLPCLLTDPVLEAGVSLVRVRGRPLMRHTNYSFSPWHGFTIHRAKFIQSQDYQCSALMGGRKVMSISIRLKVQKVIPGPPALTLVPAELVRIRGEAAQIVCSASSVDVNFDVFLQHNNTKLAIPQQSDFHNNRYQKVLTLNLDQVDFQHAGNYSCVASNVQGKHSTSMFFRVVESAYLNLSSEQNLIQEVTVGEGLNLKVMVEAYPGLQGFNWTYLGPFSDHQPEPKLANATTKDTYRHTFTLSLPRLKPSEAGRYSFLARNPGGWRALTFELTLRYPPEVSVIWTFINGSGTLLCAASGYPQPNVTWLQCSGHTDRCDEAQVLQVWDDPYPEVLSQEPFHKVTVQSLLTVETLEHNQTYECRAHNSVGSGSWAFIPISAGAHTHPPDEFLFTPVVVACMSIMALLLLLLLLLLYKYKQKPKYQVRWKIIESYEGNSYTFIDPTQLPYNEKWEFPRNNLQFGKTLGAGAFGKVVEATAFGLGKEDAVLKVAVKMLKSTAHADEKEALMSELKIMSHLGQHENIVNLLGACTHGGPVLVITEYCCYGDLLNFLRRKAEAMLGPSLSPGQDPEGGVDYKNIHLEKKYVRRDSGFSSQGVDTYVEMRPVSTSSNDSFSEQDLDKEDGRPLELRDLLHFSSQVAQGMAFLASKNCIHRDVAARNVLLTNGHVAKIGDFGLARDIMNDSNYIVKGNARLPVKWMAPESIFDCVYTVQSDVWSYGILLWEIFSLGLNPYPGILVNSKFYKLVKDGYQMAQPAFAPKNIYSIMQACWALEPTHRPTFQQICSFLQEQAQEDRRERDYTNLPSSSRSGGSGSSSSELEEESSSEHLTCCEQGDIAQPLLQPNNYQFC

`CN(C)CCCCCNc1ccc2ncn3c4ccc5[nH]ncc5c4c(=O)c1c23` [(III)]: the 50% effective concentration (EC50) in experiment [1] is 887 nM.

Take `CN(C)c1ccc2ncn3c4ccc5[nH]ncc5c4c(=O)c1c23` [(IX)]: the half-maximal effective concentration (EC50) in experiment [1] worked out at 723 nM; in experiment [2], 82 nM.

Regarding `CCN(CC)c1ccc2ncn3c4ccc5[nH]ncc5c4c(=O)c1c23` [(VI)], the 50% effective concentration (EC50) turned out to be 171 nM in experiment [1] and 84 nM in experiment [2].

Take `CNc1ccc2ncn3c4ccc5[nH]ncc5c4c(=O)c1c23` [(VII)]: the concentration for a half-maximal effect (EC50) in experiment [1] stood at 158 nM; in experiment [2], 60 nM.

With `CCN(CC)CCNc1ccc2ncn3c4ccc5[nH]ncc5c4c(=O)c1c23` [(VIII)], the EC50 in experiment [1] is 129 nM; in experiment [2], 627 nM.

For `O=c1c2c(NCCCN3CCOCC3)ccc3ncn(c4ccc5[nH]ncc5c14)c32` [(X)], the EC50 in experiment [3] was 280 nM; in experiment [1], 79 nM; in experiment [2], 90 nM. In addition, the IC50 in experiment [4] (setting [5]) and in experiment [4] (setting [6]) was 2 nM in each case.

Consider `CN(C)CCNc1ccc2ncn3c4ccc5[nH]ncc5c4c(=O)c1c23` [(XII)], for which the EC50 in experiment [3] was 360 nM. Moreover, the IC50 in experiment [4] (setting [5]) and in experiment [4] (setting [6]) was below 1 nM in each case.

Regarding `CC(CCN1CCOCC1)Nc1ccc2ncn3c4ccc5[nH]ncc5c4c(=O)c1c23` (stereo not shown) [(XVI)], the EC50 in experiment [3] was 245 nM. For the same molecule, the half-maximal inhibitory concentration (IC50) in experiment [4] (setting [5]) and in experiment [4] (setting [6]) was 121 nM throughout.

Turning to `CN1CCN(CCCNc2ccc3ncn4c5ccc6[nH]ncc6c5c(=O)c2c34)CC1` [(XVII)], in experiment [3], the half-maximal effective concentration (EC50) was 950 nM. In addition, the concentration for half-maximal inhibition (IC50) in experiment [4] (setting [7]) and in experiment [4] (setting [6]) was 82 nM in each case.

Turning to `CN(C)CCCNc1ccc2ncn3c4ccc5[nH]ncc5c4c(=O)c1c23` [Compound (IV)], the 50% effective concentration (EC50) in experiment [3] was 200 nM; in experiment [1], 13 nM. The 50% inhibitory concentration (IC50) in experiment [4] (setting [5]) and in experiment [4] (setting [6]) was below 1 nM in each case.

As to `O=c1c2c(NCCN3CCOCC3)ccc3ncn(c4ccc5[nH]ncc5c14)c32` [Compound (V)], the concentration giving a half-maximal response (EC50) in experiment [1] was determined as 172 nM; in experiment [2], 333 nM.

In the case of `CCN(CC)CCCNc1ccc2ncn3c4ccc5[nH]ncc5c4c(=O)c1c23` [Compound (XV)], the EC50 in experiment [3] was 490 nM. The IC50 in experiment [4] (setting [7]) and in experiment [4] (setting [6]) was below 1 nM throughout.

`CCN(CC)CCNc1ccc2ncn3c4ccc(O)cc4c(=O)c1c23` [Symadex, 5-(2-(diethylamino)ethylamino)-8-hydroxy-6H-imidazo[4,5,1-de]acridin-6-one, reference compound]: the EC50 in experiment [3] is 430 nM; in experiment [1] it was 8.9 nM. In addition, the IC50 in experiment [4] (setting [7]) was found to be 28 nM; in experiment [4] (setting [5]), 12 nM; in experiment [4] (setting [6]), 12 nM.

Broadly, the EC50 is the concentration needed to bring the measured effect to its halfway point. By IC50 is commonly meant the concentration at which inhibition is half-maximal.
